Like-named read-outs stand apart in the source and are kept apart here.
Legend:
TNKS1 = target: T1, TNKS1 (Homo sapiens, UniProt O95271); assay: Activity assay measuring NAD+ consumption, TNKS1; assay type: biochemical; settings: Table 4
T1 sequence (O95271 1-1327): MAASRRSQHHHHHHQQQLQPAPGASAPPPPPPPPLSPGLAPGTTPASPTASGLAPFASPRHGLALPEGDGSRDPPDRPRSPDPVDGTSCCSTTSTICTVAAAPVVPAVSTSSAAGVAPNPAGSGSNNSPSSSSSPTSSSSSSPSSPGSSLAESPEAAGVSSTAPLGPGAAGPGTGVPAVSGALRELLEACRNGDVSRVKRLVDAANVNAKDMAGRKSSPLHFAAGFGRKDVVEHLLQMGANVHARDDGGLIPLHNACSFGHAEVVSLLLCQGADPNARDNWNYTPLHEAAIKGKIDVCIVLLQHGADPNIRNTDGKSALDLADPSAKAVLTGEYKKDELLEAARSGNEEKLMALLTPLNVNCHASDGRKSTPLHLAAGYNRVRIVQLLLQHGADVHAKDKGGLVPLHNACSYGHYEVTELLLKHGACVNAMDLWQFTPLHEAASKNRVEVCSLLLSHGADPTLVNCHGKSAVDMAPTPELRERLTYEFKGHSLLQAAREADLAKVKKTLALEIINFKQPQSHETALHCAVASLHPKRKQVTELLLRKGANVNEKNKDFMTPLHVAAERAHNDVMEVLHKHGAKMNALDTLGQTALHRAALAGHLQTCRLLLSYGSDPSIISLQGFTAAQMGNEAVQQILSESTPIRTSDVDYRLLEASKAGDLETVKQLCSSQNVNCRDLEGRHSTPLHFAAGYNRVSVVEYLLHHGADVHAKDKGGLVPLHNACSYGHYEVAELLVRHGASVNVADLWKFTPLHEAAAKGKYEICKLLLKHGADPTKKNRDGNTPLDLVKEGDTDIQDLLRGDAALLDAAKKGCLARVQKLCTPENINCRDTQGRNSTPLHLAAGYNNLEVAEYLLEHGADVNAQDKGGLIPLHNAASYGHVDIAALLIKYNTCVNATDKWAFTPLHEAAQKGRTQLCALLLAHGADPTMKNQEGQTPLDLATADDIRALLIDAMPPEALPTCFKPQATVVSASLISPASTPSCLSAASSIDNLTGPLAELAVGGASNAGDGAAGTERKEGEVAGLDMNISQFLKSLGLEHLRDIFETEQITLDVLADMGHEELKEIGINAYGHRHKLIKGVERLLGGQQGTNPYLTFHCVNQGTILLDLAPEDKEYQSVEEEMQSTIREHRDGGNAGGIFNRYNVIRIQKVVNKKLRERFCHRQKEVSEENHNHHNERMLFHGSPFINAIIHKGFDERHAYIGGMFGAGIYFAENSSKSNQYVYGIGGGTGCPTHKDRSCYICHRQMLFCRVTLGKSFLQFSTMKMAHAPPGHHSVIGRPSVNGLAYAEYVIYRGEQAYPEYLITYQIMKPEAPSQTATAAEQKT
Method: All starting materials, reagents, and solvents were purchased from common commercial suppliers and were used as such without further purification. […] Organic solutions were dried over anhydrous Na2SO4 and concentrated with rotary evaporator at low pressure. All the reactions were routinely checked by thin-layer chromatography (TLC) on silica gel 60F254 (Merck) and visualized by using UV and iodine. Flash chromatography separations were carried out on Merck silica gel 60 (mesh 230-400) or by using automated Buchi Reveleris X2-UV with column FP Ecoflex Si 12 g. Yields were of purified products and were not optimized. ^1HNMR spectra were recorded at 400 MHz (Bruker Avance DRX-400), while ^13CNMR spectra were recorded at 101 MHz (Bruker Avance DRX-400). Chemical shifts are given in ppm (δ) relative to TMS. […] Mating constant (J) are reported in Hz. The purity of the tested compounds was evaluated by HPLC analysis using Jasco LC-4000 instrument equipped with a UV-Visible Diode Array Jasco-MD4015 (Jasco Corporation, Tokyo, Japan), and XTerra MS C18 column, 5 μm×4.6 mm×150 mm (Waters Corporation, Massachusetts, USA). Chromatograms were analyzed by ChromNAV2.0 Chromatography Data System software. […] The peak retention time (ret. time) is given in minutes. […] 1-Isobutoxy-4-methoxy-2-nitrobenzene (113). Isobutyl alcohol (0.6 mL, 6.43 mmol) was added, under nitrogen atmosphere at 0° C., to a suspension of NaH (0.26 g, 6.43 mmol) in dry DMF. After 15 minutes, 1-fluoro-4-methoxy-2-nitrobenzene 112 (1 g, 5.84 mmol) was also added and the reaction mixture was stirred at 80° C. for 4 h. […] (2-Isobutoxy-5-methoxyphenyl)amine (114). Zn (1.57 g, 24 mmol) and NH4C1 (2.45 g, 40 mmol) were added to a solution of 113 (0.46 g, 2 mmol) in acetone/H2O (50 mL, ratio 5:1). The reaction mixture was stirred at 60° C. for 3 h and, then, it was filtered over celite. […] N-(2,5-diethoxyphenyl)thiourea (55). […] N-(2-isobutoxy-5-methoxyphenyl)thiourea (115). […] A solution of Br2 (0.2 mL, 3.3 mmol) in CHCl3 (5 mL) was slowly added to a suspension of 45 (0.6 g, 3.3 mmol) in CHCl3 (13 mL), at 0° C. […]

PARP2 = target: T2, PARP2 (Homo sapiens, UniProt Q9UGN5); assay: biochemical; assay type: biochemical
T2 construct: made in house
Method: All starting materials, reagents, and solvents were purchased from common commercial suppliers and were used as such without further purification. […] Organic solutions were dried over anhydrous Na2SO4 and concentrated with rotary evaporator at low pressure. All the reactions were routinely checked by thin-layer chromatography (TLC) on silica gel 60F254 (Merck) and visualized by using UV and iodine. Flash chromatography separations were carried out on Merck silica gel 60 (mesh 230-400) or by using automated Buchi Reveleris X2-UV with column FP Ecoflex Si 12 g. Yields were of purified products and were not optimized. ^1HNMR spectra were recorded at 400 MHz (Bruker Avance DRX-400), while ^13CNMR spectra were recorded at 101 MHz (Bruker Avance DRX-400). Chemical shifts are given in ppm (δ) relative to TMS. […] Mating constant (J) are reported in Hz. The purity of the tested compounds was evaluated by HPLC analysis using Jasco LC-4000 instrument equipped with a UV-Visible Diode Array Jasco-MD4015 (Jasco Corporation, Tokyo, Japan), and XTerra MS C18 column, 5 μm×4.6 mm×150 mm (Waters Corporation, Massachusetts, USA). Chromatograms were analyzed by ChromNAV2.0 Chromatography Data System software. […] The peak retention time (ret. time) is given in minutes. […] 1-Isobutoxy-4-methoxy-2-nitrobenzene (113). Isobutyl alcohol (0.6 mL, 6.43 mmol) was added, under nitrogen atmosphere at 0° C., to a suspension of NaH (0.26 g, 6.43 mmol) in dry DMF. After 15 minutes, 1-fluoro-4-methoxy-2-nitrobenzene 112 (1 g, 5.84 mmol) was also added and the reaction mixture was stirred at 80° C. for 4 h. […] (2-Isobutoxy-5-methoxyphenyl)amine (114). Zn (1.57 g, 24 mmol) and NH4C1 (2.45 g, 40 mmol) were added to a solution of 113 (0.46 g, 2 mmol) in acetone/H2O (50 mL, ratio 5:1). The reaction mixture was stirred at 60° C. for 3 h and, then, it was filtered over celite. […] N-(2,5-diethoxyphenyl)thiourea (55). […] N-(2-isobutoxy-5-methoxyphenyl)thiourea (115). […] A solution of Br2 (0.2 mL, 3.3 mmol) in CHCl3 (5 mL) was slowly added to a suspension of 45 (0.6 g, 3.3 mmol) in CHCl3 (13 mL), at 0° C. The reaction mixture was stirred at r.t. for 4 h and, then, a 10% solution of Na2SO3 in water was added to the mixture. […] 4,7-Diethoxy-1,3-benzothiazol-2-amine (66). […] 4-Isobutoxy-7-methoxy-1,3-benzothiazol-2-amine (116). […] Hydrazine hydrate (0.23 mL, 4.77 mmol) and CH3COOH (0.12 mL, 2.1 mmol) were added to a suspension of 56 (0.29 g, 1.59 mmol) in ethylene glycol (8 mL), and the reaction mixture was stirred for 24 h at 125° C. […] 6-Ethyl-2-hydrazino-1,3-benzothiazole (69). […] 6-Ispropyl-2-hydrazino-1,3-benzothiazole (70). […] 2-Hydrazino-4,7-dimethoxy-1,3-benzothiazole (73). […] 2-Hydrazino-5,7-dimethoxy-1,3-benzothiazole (75). […] 2-Hydrazino-4,7-Diethoxy-1,3-benzothiazole (77). […] 2-Hydrazino-5-methyl[1,3]thiazolo[5,4-b]pyridine (100). […] A solution of 67 (0.13 g, 0.65 mmol) in formic acid (5 mL) was refluxed for 10 h. The reaction mixture was then poured into ice/water and the pH was neutralized using a saturated solution of NaHCO3.

T2 sequence (Q9UGN5 whole entry): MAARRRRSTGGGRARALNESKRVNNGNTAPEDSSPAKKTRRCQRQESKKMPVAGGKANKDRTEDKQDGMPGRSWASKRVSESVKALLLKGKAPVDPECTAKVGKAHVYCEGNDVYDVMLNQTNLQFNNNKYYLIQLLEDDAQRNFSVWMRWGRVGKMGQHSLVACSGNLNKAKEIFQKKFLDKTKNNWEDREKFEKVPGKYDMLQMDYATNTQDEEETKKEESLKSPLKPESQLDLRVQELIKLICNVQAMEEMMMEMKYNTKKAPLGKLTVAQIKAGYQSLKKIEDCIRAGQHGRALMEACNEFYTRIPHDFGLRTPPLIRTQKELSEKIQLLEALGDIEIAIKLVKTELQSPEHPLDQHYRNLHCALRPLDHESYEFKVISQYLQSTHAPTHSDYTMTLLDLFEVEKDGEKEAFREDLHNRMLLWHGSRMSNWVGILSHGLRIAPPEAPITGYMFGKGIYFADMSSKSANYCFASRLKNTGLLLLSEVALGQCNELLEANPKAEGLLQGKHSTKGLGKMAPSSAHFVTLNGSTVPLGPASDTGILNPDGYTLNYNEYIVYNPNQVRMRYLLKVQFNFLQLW

SMILES	IC50 (TNKS1) [nM]	IC50 (PARP2; NAD+ consumption assay, > less than 50% inhibition at highest concentration, >> no inhibition) [nM]	IC50 (PARP2) [nM]	PARP2 pIC50 ± SEM (PARP2)	IC50 (PARP2; NAD+ consumption assay) [nM]
COc1ccc(OC)c2c1sc1nnc(N)n12 [Compound 28, 5,8-Dimethoxy[1,2,4]triazolo[3,4-b][1,3]benzothiazol-3-amine]	5400	10000	–	–	–
Oc1ccc2c(c1)sc1nncn12 [Compound 10]	1600	–	44	(7.44 ± 0.12)	–
Cc1ccc2c(c1)sc1nnc(N)n12 [Compound 22, 7-Methyl[1,2,4]triazolo[3,4-b][1,3]benzothiazol-3-amine]	2100	–	–	–	–
Nc1nnc2sc3cc(O)ccc3n12 [Compound 109, 3-Amino[1,2,4]triazolo[3,4-b][1,3]benzothiazol-7-ol]	–	–	–	–	5 to 10
